Columns and labels:
TLR9 = target: T1, TLR9 (Homo sapiens, UniProt Q9NR96); assay: Human PBMC cell-based assay; parameters: These cells express TLR7, TLR8, or TLR9, and therefore are natural responders to respective ligand stimulation; endogenous in cells; host or cells: human PBMC from healthy donor whole blood; settings: CpG ODN 2216 at 1 μM, read-out: hPBMC/TLR9 IC50
T1 sequence (Q9NR96 26-1032): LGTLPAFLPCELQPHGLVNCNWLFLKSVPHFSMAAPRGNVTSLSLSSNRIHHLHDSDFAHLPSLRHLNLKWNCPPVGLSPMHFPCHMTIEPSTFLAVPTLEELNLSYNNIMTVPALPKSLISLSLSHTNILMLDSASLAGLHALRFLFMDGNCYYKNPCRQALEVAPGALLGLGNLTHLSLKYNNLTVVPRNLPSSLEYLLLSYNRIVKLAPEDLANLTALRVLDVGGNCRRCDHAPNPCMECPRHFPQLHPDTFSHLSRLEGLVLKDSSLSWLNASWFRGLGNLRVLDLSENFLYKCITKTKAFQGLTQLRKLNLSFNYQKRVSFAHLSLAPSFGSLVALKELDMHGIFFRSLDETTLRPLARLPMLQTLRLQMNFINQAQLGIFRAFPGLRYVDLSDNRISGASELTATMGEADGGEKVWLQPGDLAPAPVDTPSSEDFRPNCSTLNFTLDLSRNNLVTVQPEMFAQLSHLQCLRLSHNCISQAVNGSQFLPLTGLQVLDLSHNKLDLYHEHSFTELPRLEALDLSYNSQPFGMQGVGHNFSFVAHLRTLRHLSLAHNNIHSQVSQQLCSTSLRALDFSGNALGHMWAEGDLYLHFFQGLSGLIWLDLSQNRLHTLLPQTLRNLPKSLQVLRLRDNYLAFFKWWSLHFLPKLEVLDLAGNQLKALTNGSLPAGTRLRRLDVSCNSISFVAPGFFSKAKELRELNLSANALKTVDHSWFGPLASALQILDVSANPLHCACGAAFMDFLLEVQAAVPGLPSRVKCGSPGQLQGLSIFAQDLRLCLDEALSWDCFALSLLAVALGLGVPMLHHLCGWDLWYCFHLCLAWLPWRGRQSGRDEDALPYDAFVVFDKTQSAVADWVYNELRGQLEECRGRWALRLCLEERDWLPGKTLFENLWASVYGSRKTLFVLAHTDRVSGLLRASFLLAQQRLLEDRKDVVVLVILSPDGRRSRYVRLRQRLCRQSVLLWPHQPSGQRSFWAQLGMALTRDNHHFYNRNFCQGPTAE
Description: Unlike the HEK reporter cell lines, human peripheral blood mononuclear cell (PBMC) represents primary human immune cells in blood mainly consisting of lymphocytes, monocytes, and dendritic cells. These cells express TLR7, TLR8, or TLR9, and therefore are natural responders to respective ligand stimulation. Upon activation of these TLRs, PBMCs secrete similar cytokines and chemokines in vitro and in vivo, and therefore the in vitro potency of a TLR7/8/9 antagonist in human PBMC is readily translatable to its pharmacodynamics response in vivo.
Human peripheral blood mononuclear cells (PBMC) were isolated from freshly-drawn lithium-heparinized (Lithium Heparin Plus blood Collection tube, BD Vacutainer®) healthy donor whole blood by density gradient (Ficoll-Paque™ PLUS, GE Healthcare life Sciences). Briefly, […] was diluted with 25 mL PBS (without Ca^2+, Mg^2+) in a 50 mL conical tube with porous barrier (Leucosep tube, Greiner bio-one), where 15.5 mL Ficoll-Paque was under laid after spinning. Tubes were centrifuged for 20 minutes at 800×g (1946 rpm) with the brake in the off position, and PBMC were collected from the buffy coat. Cells were then washed twice in PBS, and red blood cells were lysed by suspension in 2 mL (Red Blood Cell Lysis Buffer, Alfa Aesar) for 5-10 minutes at room temperature. After a final wash in PBS, PBMC were resuspended at a final concentration of 2×10^6 cells/mL in RPMI-1640 media with GlutaMAX™ (Gibco) supplemented with 10% Fetal Bovine Serum (Sigma) and plated at 150 μL/well (3×10^5 cells/well) in tissue culture treated round bottom 96-well plates (Corning Incorporated). Antagonist compounds (compounds of this invention) solubilized and serial diluted in 100% DMSO were added in duplicate to cells to yield a final concentration of 1% DMSO (v/v). PBMC were incubated with antagonist compounds for 30 minutes at 37° C., 5% CO2 before adding various TLR agonist reagents in 48 μL complete media per well as follows (final concentrations indicated): CpG ODN 2216 (InvivoGen) at 1 μM for TLR9, ORN 06/LyoVec (InvivoGen) at […] for TLR8 and R848 (InvivoGen) at 1 μg/mL for TLR7 and TLR8. PBMC were incubated overnight at 37° C. with 5% C02. Cell culture supernatants were collected, and levels of various human cytokines were assessed by Luminex assay (ProcartaPlex™ Multiplex Immunoassay, Invitrogen) or ELISA procedure according to the manufacturer's recommended protocol (eBioscience, ThermoFisher Scientific). Viability of the cells was also checked with Cell Viability Assay (CellTiter Glo® Luminescent Cell Viability Assay, Promega).

hERG K+ channel = target: T2, hERG K+ channel (Homo sapiens, UniProt Q12809); assay: hERG channel inhibition assay (patch-clamp, CHO-hERG cells); format: cell-based; settings: for IC50 / IC20: CHO-hERG cells, whole-cell patch-clamp; for IC20: human, CHO cells stably expressing hERG; for hERG IC20/TLR7 IC50 / hERG IC20/TLR8 IC50 / hERG IC20/TLR9 IC50: safety ratio
T2 construct: expressed in transfected cells; host or cells: CHO (Chinese hamster ovary)
Procedure: The hERG K^+ channels were cloned in humans and stably expressed in a CHO (Chinese hamster ovary) cell line. CHOhERG cells were used for patch-clamp (voltage-clamp, whole-cell) experiments. Cells were stimulated by a voltage pattern to activate hERG channels and conduct IKhERG Currents (rapid delayed outward rectifier potassium current of the hERG channel). After the cells were stabilized for a few minutes, the amplitude and kinetics of IKhERG were recorded at a stimulation frequency of 0.1 Hz (6 bpm). Thereafter, the test compound was added to the preparation at increasing concentrations. For each concentration, an attempt was made to reach a steady-state effect, usually, this was achieved within 3-10 min at which time the next highest concentration was applied. The amplitude and kinetics of IKhERG are recorded in each concentration of the drug which were compared to the control values (taken as 100%). (references: Redfe W S, Carlsson L, Davis A S, Lynch W G, MacKenzie I, Palethorpe S, Siegl P K, Strang I, Sullivan A T, Wallis R, Camm A J, Hammond T G. 2003; Relationships between preclinical cardiac electrophysiology, clinical QT interval prolongation and torsade de pointes for a broad range of drugs: evidence for a provisional safety margin in drug development. Cardiovasc. Res. 58:32-45, Sanguinetti M C, Tristani-Firouzi M. 2006; hERG potassium channels and cardiac arrhythmia. Nature 440:463-469, Webster R, Leishman D, Walker D. 2002; Towards a drug concentration effect relationship for QT prolongation and torsades de pointes. Curr. Opin. Drug Discov. Devel. 5:116-26).

T2 sequence (Q12809 whole entry): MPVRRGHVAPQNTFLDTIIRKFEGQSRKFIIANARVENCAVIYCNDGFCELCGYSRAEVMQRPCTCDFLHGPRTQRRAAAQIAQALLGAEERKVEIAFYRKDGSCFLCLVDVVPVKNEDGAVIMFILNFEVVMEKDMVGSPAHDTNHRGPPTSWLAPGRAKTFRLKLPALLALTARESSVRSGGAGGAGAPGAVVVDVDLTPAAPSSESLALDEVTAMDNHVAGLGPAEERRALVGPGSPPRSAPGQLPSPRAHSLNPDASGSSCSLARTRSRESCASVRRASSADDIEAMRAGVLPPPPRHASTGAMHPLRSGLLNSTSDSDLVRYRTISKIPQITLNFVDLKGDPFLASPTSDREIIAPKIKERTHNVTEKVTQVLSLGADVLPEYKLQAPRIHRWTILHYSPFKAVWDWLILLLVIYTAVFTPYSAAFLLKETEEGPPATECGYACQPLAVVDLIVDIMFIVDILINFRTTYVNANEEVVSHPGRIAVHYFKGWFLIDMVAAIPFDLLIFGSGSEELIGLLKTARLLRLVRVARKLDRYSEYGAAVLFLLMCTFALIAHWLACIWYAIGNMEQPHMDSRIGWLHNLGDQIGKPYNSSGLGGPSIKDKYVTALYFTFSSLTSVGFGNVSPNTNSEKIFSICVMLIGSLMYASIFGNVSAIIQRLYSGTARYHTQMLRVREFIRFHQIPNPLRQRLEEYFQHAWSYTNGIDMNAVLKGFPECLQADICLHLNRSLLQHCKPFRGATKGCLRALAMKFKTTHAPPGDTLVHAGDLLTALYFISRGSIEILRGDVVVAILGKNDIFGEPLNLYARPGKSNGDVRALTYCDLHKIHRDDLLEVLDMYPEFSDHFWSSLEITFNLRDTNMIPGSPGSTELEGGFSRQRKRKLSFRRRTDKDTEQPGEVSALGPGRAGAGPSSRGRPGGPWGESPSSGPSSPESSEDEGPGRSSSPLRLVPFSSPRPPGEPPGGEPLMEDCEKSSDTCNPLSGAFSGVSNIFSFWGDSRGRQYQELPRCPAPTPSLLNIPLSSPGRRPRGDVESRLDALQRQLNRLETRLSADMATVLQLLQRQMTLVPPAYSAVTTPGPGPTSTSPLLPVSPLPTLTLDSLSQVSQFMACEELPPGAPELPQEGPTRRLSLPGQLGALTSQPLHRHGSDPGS

## Cc1cc(N2CCC(c3cnc(N4CCNCC4)cc3C)[C@H](C)C2)c2cnn(C)c2n1 (single isomer, unassigned) [Example 21, 1,6-dimethyl-4-[trans-3-methyl-4-(4-methyl-6-piperazin-1-yl-3-pyridyl)-1-piperidyl]pyrazolo[3,4-b]pyridine]
TLR9
  IC50: 0.848 µM

## Cc1cc(N2CCC(c3ncc(N4CCNCC4)cc3C)[C@H](C)C2)c2cnn(C)c2n1 (single isomer, unassigned) [Example 25, 1,6-dimethyl-4-[trans-3-methyl-4-(3-methyl-5-piperazin-1-yl-2-pyridyl)-1-piperidyl]pyrazolo[3,4-b]pyridine]
hERG K+ channel
  IC50: > 20 µM
  IC20: > 10 µM
  hERG IC20/TLR7 IC50: >1111.1
  hERG IC20/TLR8 IC50: >1428.6
  hERG IC20/TLR9 IC50: >102.0
TLR9
  IC50: 0.32 µM

## Cc1cc(N2CCC(c3ccc(N4CCNCC4)cc3)CC2)c2cnn(C)c2n1 [Example 1, 1,6-dimethyl-4-[4-(4-piperazin-1-ylphenyl)-1-piperidyl]pyrazolo[3,4-b]pyridine]
hERG K+ channel
  IC50: > 10 µM
  IC20: 4 µM
  hERG IC20/TLR7 IC50: 75.5
  hERG IC20/TLR8 IC50: 333.3
  hERG IC20/TLR9 IC50: 14.5

## Cc1cc(N2CCC(c3ccc(N4CCNCC4)cn3)CC2)c2cnn(C)c2n1 [Example 2, 1,6-dimethyl-4-[4-(5-piperazin-1-yl-2-pyridyl)-1-piperidyl]pyrazolo[3,4-b]pyridine]
hERG K+ channel
  IC50: > 20 µM
  IC20: > 10 µM
  hERG IC20/TLR7 IC50: >370.4
  hERG IC20/TLR8 IC50: >476.2
  hERG IC20/TLR9 IC50: >70.4
TLR9
  IC50: 0.47 µM

## Cc1cc(N2CCNCC2)ncc1C1CCN(c2ccnc3c2cnn3C)CC1 [Example 6, 1-methyl-4-[4-(4-methyl-6-piperazin-1-yl-3-pyridyl)-1-piperidyl]pyrazolo[3,4-b]pyridine]
hERG K+ channel
  IC50: > 10 µM
  IC20: 4.4 µM
  hERG IC20/TLR7 IC50: 628.6
  hERG IC20/TLR8 IC50: 118.9
  hERG IC20/TLR9 IC50: 21.2
TLR9
  IC50: 0.617 µM

## Cc1cc(N2CCC(c3cnc(N4CCNCC4)nc3C)CC2)c2cnn(C)c2n1 [Example 11, 1,6-dimethyl-4-[4-(4-methyl-2-piperazin-1-yl-pyrimidin-5-yl)-1-piperidyl]pyrazolo[3,4-b]pyridine]
hERG K+ channel
  IC50: > 20 µM
  IC20: 7.5 µM
  hERG IC20/TLR7 IC50: 202.7
  hERG IC20/TLR8 IC50: 178.6
  hERG IC20/TLR9 IC50: 72.1

## COc1cc(N2CCNCC2)cnc1C1CCN(c2cc(C)nc3c2cnn3C)CC1 [Example 14, 4-[4-(3-methoxy-5-piperazin-1-yl-2-pyridyl)-1-piperidyl]-1,6-dimethyl-pyrazolo[3,4-b]pyridine]
TLR9
  IC50: 0.34 µM

## Cc1cc(N2CC[C@@H](c3ncc(N4CC5(CNCCO5)C4)cc3C)[C@H](C)C2)c2cnn(C)c2n1 [Example 27, 2-[6-[(3S,4R)-1-(1,6-dimethylpyrazolo[3,4-b]pyridin-4-yl)-3-methyl-4-piperidyl]-5-methyl-3-pyridyl]-5-oxa-2,8-diazaspiro[3.5]nonane]
TLR9
  IC50: 0.38 µM

## Cc1cc(N2CC[C@@H](c3ncc(N4CC[C@@H](N)[C@H](F)C4)cc3C)[C@H](C)C2)c2cnn(C)c2n1 [Example 31, (3R,4R)-1-[6-[(3S,4R)-1-(1,6-dimethylpyrazolo[3,4-b]pyridin-4-yl)-3-methyl-4-piperidyl]-5-methyl-3-pyridyl]-3-fluoro-piperidin-4-amine]
TLR9
  IC50: 0.41 µM

## CO[C@@H]1CN(c2ccc([C@H]3CCN(c4cc(C)nc5c4cnn5C)C[C@@H]3C)nc2)C[C@H]1N [Example 36, (3R,4R)-1-[6-[(3R,4S)-1-(1,6-dimethylpyrazolo[3,4-b]pyridin-4-yl)-3-methyl-4-piperidyl]-3-pyridyl]-4-methoxy-pyrrolidin-3-amine]
hERG K+ channel
  IC50: > 20 µM
  IC20: > 10 µM
  hERG IC20/TLR7 IC50: >555.6
  hERG IC20/TLR8 IC50: >476.2
  hERG IC20/TLR9 IC50: >58.8

## COC[C@H]1CN(c2ccc([C@H]3CCN(c4cc(C)nc5c4cnn5C)C[C@@H]3C)nc2)CCN1 [Example 37, 4-[(3R,4S)-4-[5-[(3R)-3-(methoxymethyl)piperazin-1-yl]-2-pyridyl]-3-methyl-1-piperidyl]-1,6-dimethyl-pyrazolo[3,4-b]pyridine]
hERG K+ channel
  IC50: > 20 µM
  IC20: > 10 µM
  hERG IC20/TLR7 IC50: >1111.1
  hERG IC20/TLR8 IC50: >769.2
  hERG IC20/TLR9 IC50: >30.1

## Cc1cc(N2CC[C@H](c3ccc(N4CC5(CNCCO5)C4)cn3)[C@@H](C)C2)c2cnn(C)c2n1 [Example 38, 2-[6-[(3R,4S)-1-(1,6-dimethylpyrazolo[3,4-b]pyridin-4-yl)-3-methyl-4-piperidyl]-3-pyridyl]-5-oxa-2,8-diazaspiro[3.5]nonane]
hERG K+ channel
  IC50: > 20 µM
  IC20: 5.2 µM
  hERG IC20/TLR7 IC50: 400.0
  hERG IC20/TLR8 IC50: 472.7
  hERG IC20/TLR9 IC50: 27.1

Reference: patent publication US20240360126A1, “PYRAZOLO[3,4-B]PYRIDINE COMPOUNDS FOR THE TREATMENT OF AUTOIMMUNE DISEASE” (Hoffmann-La Roche Inc., priority 2021, published 2024)
